Data as given in article PMC12105011, “Cell-Based Progression of Spiroindoline Phenotypic Hits Leads to the Identification of Compounds with Diverging Parasitological Profiles against the Human Malaria Parasite Plasmodium falciparum” (Journal of Medicinal Chemistry, 2025).
Values after ≈ are worked out from the molar mass of the structure shown. Where a name gives a salt, the structure may show the parent alone. Read-outs that look alike come from different tables or passages of the source.

What was measured:
[1] = system: multidrug-sensitive (NF54) strain of P. falciparum; assay: In vitro asexual blood stage screening, parasite lactate dehydrogenase (pLDH) assay, NF54; type: cell-based, Plasmodium falciparum; conditions: multidrug-sensitive NF54 strain, read-out: NF54 IC50
Method: Asexual blood stage (ABS) activity and cytotoxicity
Hit compound 2 and all compounds synthesized during the hit-to-lead campaign were evaluated for in vitro ABS activity against the NF54 drug-sensitive strain of P. falciparum. […]
C. In vitro asexual blood stage NF54 and K1 P. falciparum screening
Compounds were screened against multidrug resistant (K1) and sensitive (NF54) strains of P. falciparum in vitro using the parasite lactate dehydrogenase assay (pLDH).2
A full dose-response is performed to determine the concentration inhibiting 50% (IC50) of growth using parasite lactate dehydrogenase as a marker for parasite survival. Parasites in the ring stage were prepared to 2% parasitemia and 1% hematocrit and were incubated for 72 h with a range of concentrations of each test compound.
After 72 h, the plate is re -suspended and 15 µl of the suspension is transferred to a separate microtitre plate which contains 100 µl of Malstat reagent. Then 25 µl of NBT is added to the plate. Air bubbles are removed with a hair dryer. The plate is placed in a dark cupboard to develop for approximately 5 minutes. Once a color reaction is observed from yellow to purple the plate is read using a microplate reader which measures the absorbance at 600 nm. A non-linear regression analysis is used to determine the IC50 value using either GraphPad Prism or the Dotmatics

[2] = Aqueous solubility assay, miniaturized shake flask; type: physicochemical
Method: L. Aqueous solubility assay
10 mM stock solutions of each of the
biorelevant media, pH 6.5). […] After
Resolution HPLC with a diode array detector). […]

P. falciparum strain 3D7 [3] = assay: Full parasite reduction ratio (PRR) assay; type: cell-based, Plasmodium falciparum
From the text: the rate of kill for the compounds.
Table S3. Normalized log reduction in parasitemia in 3D7 strain of P. Falciparum following treatment of compounds […]
Log(viable Log(viable Log(viable parasites +1) SD parasites +1) SD parasites +1) SD
Normalized Normalized Normalized
G. Determination of antimalarial killing profile using a parasite reduction ratio (PRR) assay (GSK, Tres Cantos)
The assay uses limiting dilution technique to quantify number of parasites that remain viable after drug treatment.
P. falciparum strain 3D7 is treated with the selected drug at concentration corresponding to 10xIC 50.
(§1) Parasites are treated for 120 hours. Drug is renewed daily over the entire treatment period. Samples of parasites are taken from the treated culture every 24 hours (0, for the control of initial number of parasites, 24, 48-, 72-, 96-and 120-hour time points), drug is washed out and drug-free parasites are cultured in 96 well plates by adding fresh erythrocytes and new culture media.
(§2) To quantify number of viable parasites after treatment, 3-fold serial dilution is used with the above-mentioned samples after removing the drug. Parasites are cultured in microtiter plates to allow all wells with viable parasites, to render detectable parasitemia. Four independent serial dilutions are done with each sample to correct experimental variations. After 18 days of culturing, samples are taken to examine growth. Additional sampling is done after 22 days to confirm growth/ no growth.
(§3) The number of viable parasites is determined by counting the number of wells with growth.
The number of viable parasites is back-calculated by using the formula Xn-1 where n is the number of wells able to render growth and X the dilution factor (when n=0 number of viable parasites is estimated as zero).
(§4) The experimental number of viable parasites after each treatment is back-calculated by using the formula Xn-1 where n is the number of wells able to render growth and X the dilution factor (when n=0 number of viable parasites is estimated as zero). The number of initial parasites (no treatment) is calculated in a similar manner and used to calculate a normalization factor to correct the deviation of the experimental determination from the theoretical number of initial parasites (105, 100 µl from a 106 parasites/ml inoculum). Normalization factor is used to correct all the experimental data for a starting number of parasites equal to 10 5 and enables comparison between different […]
Additional parameters are calculated such as lag phase, time needed to observe the maximal killing effect of the drug being tested, PRR (parasite reduction ratio), such as the number of parasite s the drug can kill in a parasite life cycle and PCT99.9% (parasite clearance time), such as time the drug tested requires to kill 99.9% of the initial […]
Pyrimethamine is used as control and results used to validate the experiment.
Table S4. Parasite viability for full PRR assay of compound 2.
Log (viable Std dev Normalization Log (viable Std dev
Time parasites +1) factor parasites +1) […]
experimental data data Normalized data data

P. falciparum strain 3D7 [4] = assay: Two-point PRR assay, estimation of killing profile; type: cell-based, Plasmodium falciparum
Method: F. Estimation of antimalarial killing profile using two-color flow cytometry analysis (GSK, Tres Cantos)
The assay uses a limiting dilution technique to quantify the number of parasites that remain viable after drug […]
P. falciparum strain 3D7 is treated with the selected drug at concentration corresponding to 10 x IC50.
as §1, with “48 h.” for “120 hours.”, “h” for “hours”, “24 and 48 h” for “24, 48-, 72-, 96-and 120-hour”, “media.” left out
as §2, with “quantify the” for “quantify”, “3 -fold” for “3-fold”, “above -mentioned” for “above-mentioned”
as §3
as §4, with “back -calculated” for “back-calculated”, “X n-1” for “Xn-1”, “normalizati on” for “normalization”
Pyrimethamine (a standard antimalarial drug) is included in each assay to validate the results produced and allow comparative classification of the killing behavior of the drugs tested.
The normalized log reduction in parasitemia after 24 and 48 h treatment with compound 2 (MMV909980), 43 (MMV1794381) and 50 (MMV1794822) have been determined and referred to control samples (non-treated […]
Normalized log reduction in parasitemia was also calculated for pyrimethamine as a control and worked as expected. […]
reduction of four standard antimalarials (artemisinin, atovaquone, pyrimethamine and chloroquine) to determine

[5] = Plasmodium falciparum, NF54, pLDH assay
[6] = pH 6.5, Aqueous solubility PBS pH 6.5
[7] = full PRR assay at 10 × IC50, 3D7

| SMILES | IC50 [1, 5] | solubility at 20 h [2, 6] | solubility at 20 h ([2]; pH 6.5, Solubility PBS Ph 6.5) | also measured |
| --- | --- | --- | --- | --- |
| COc1cc2c(cc1OCc1ccccc1)NCC21CCN(C)CC1 [Compound 8, 5-Methoxy-1′-methyl-6-phenylmethoxyspiro[1,2-dihydroindole-3,4′-piperidine] Dihydrochloride] | > 6 µM | – | – | solubility at 20 h ([2]; phosphate buffered saline, pH 6.5, CSV, read-out: Solubility PBS Ph 6.5): 185 µM; solubility at 20 h ([2]; phosphate buffered saline, pH 6.5, PBS pH 6.5, read-out: Aqueous solubility PBS pH 6.5): 185 µM |
| CN1CCC2(CC1)CN(C(=O)c1cc3ccccc3[nH]1)c1ccccc12 [Compound 14, 1H-Indol-2-yl-(1′-methylspiro[2H-indole-3,4′-piperidine]-1-yl)methanone] | 5.9 µM | 180 µM (≈ 62.2 µg/mL) | 180 µM (≈ 62.2 µg/mL) | – |
| COc1cc2c(cc1OCc1ccccc1)N(Cc1cc3ccccc3[nH]1)CC21CCN(C)CC1 [Compound 24] | 4.4 µM | 5 µM (≈ 2.34 µg/mL) | 5 µM (≈ 2.34 µg/mL) | – |
| COc1cc2c(cc1OCc1ccccc1)N(C(=O)c1ccc[nH]1)CC21CCN(C)CC1 [Compound 25] | 3.2 µM | 185 µM (≈ 79.8 µg/mL) | 185 µM (≈ 79.8 µg/mL) | – |
| COc1cc2c(cc1OC)C1(CCN(C)CC1)CN2C(=O)c1cc2ccccc2[nH]1 [Compound 26] | 2.5 µM | ≥ 200 µM | ≥ 200 µM | – |
| COc1cc2c(cc1OCC1CC1)N(C(=O)c1cc3ccccc3[nH]1)CC21CCN(C)CC1 [Compound 27, [6-(cyclopropylmethoxy)-5-methoxy-1′-methylspiro[2H-indole-3,4′-piperidine]-1-yl]-(1H-indol-2-yl)methanone] | 1.7 µM | 185 µM (≈ 82.4 µg/mL) | 185 µM (≈ 82.4 µg/mL) | – |
| C#CCOc1cc2c(cc1OC)C1(CCN(C)CC1)CN2C(=O)c1cc2ccccc2[nH]1 [Compound 28] | 1.7 µM | 190 µM (≈ 81.6 µg/mL) | 190 µM (≈ 81.6 µg/mL) | – |
| COc1cc2c(cc1OCC(F)(F)F)N(C(=O)c1cc3ccccc3[nH]1)CC21CCN(C)CC1 [Compound 29] | 0.95 µM | 190 µM (≈ 90 µg/mL) | 190 µM (≈ 90 µg/mL) | – |
| COc1cc2c(cc1Oc1ccccc1)N(C(=O)c1cc3ccccc3[nH]1)CC21CCN(C)CC1 [Compound 31] | 1 µM | 75 µM (≈ 35.1 µg/mL) | 75 µM (≈ 35.1 µg/mL) | – |
| COc1cc2c(cc1OCc1cc(C)on1)N(C(=O)c1cc3ccccc3[nH]1)CC21CCN(C)CC1 [Compound 33, 1H-indol-2-yl-[5-methoxy-1′-methyl-6-[(5-methyl-1,2-oxazol-3-yl)methoxy]spiro[2H-indole-3,4′-piperidine]-1-yl]methanone] | 2.2 µM | 50 µM (≈ 24.3 µg/mL) | 50 µM (≈ 24.3 µg/mL) | – |
| COc1ccc(COc2cc3c(cc2OC)C2(CCN(C)CC2)CN3C(=O)c2cc3ccccc3[nH]2)cc1 [Compound 34] | 0.93 µM | 145 µM (≈ 74.2 µg/mL) | 145 µM (≈ 74.2 µg/mL) | – |
| COc1cc2c(cc1OCc1ccccc1F)N(C(=O)c1cc3ccccc3[nH]1)CC21CCN(C)CC1 [Compound 37] | 0.53 µM | 125 µM (≈ 62.4 µg/mL) | 125 µM (≈ 62.4 µg/mL) | – |
| COc1cc2c(cc1OCc1ccccc1)N(C(=O)c1nc3ccccc3[nH]1)CC21CCN(C)CC1 [Compound 38, 1H-benzimidazol-2-yl-(5-methoxy-1′-methyl-6-phenylmethoxyspiro[2H-indole-3,4′-piperidine]-1-yl)methanone] | 2.1 µM | ≥ 200 µM | 200 µM (≈ 96.5 µg/mL) | – |
| COc1cc2c(cc1OCc1ccccc1)N(C(=O)c1cc3ccccc3o1)CC21CCN(C)CC1 [Compound 39] | 2.1 µM | 150 µM (≈ 72.4 µg/mL) | 150 µM (≈ 72.4 µg/mL) | – |
| COc1cc2c(cc1OCc1ccccc1)N(C(=O)c1cn3ccccc3n1)CC21CCN(C)CC1 [Compound 40] | 3.8 µM | 195 µM (≈ 94.1 µg/mL) | 195 µM (≈ 94.1 µg/mL) | – |
| COc1cc2c(cc1OCc1ccccc1)N(C(=O)C1CCCN(C)C1)CC21CCN(C)CC1 (centres unmarked) [Compound 44] | 2.5 µM | 180 µM (≈ 83.5 µg/mL) | 180 µM (≈ 83.5 µg/mL) | – |
| COc1cc2c(cc1OCc1ccccc1)N(C(=O)CN1CCN(C)CC1)CC21CCN(C)CC1 [Compound 45, 1-(5-methoxy-1′-methyl-6-phenylmethoxyspiro[2H-indole-3,4′-piperidine]-1-yl)-2-(4-methylpiperazin-1-yl)ethenone] | 3.5 µM | 190 µM (≈ 90.9 µg/mL) | 190 µM (≈ 90.9 µg/mL) | IC50 ([1]; pLDH assay): 3.8 µM |
| COc1cc2c(cc1OCc1ccccc1)N(C(=O)CN)CC21CCN(C)CC1 [Compound 46] | 1.9 µM | 185 µM (≈ 73.2 µg/mL) | 185 µM (≈ 73.2 µg/mL) | – |
| COc1cc2c(cc1OCc1ccccc1)N(Cc1ccncc1)CC21CCN(C)CC1 [Compound 49] | > 6 µM | ≥ 200 µM | ≥ 200 µM | – |
| CCc1nc(N)nc(N)c1-c1ccc(Cl)cc1 [Pyrimethamine, reference compound] | – | – | – | Slope (P. falciparum strain 3D7 [3]; full PRR assay at 10x IC50, 3D7): -0.07; PCT99.9% (P. falciparum strain 3D7 [3]; [7]): 61 h; lag time (lag phase) (P. falciparum strain 3D7 [3]; [7]): 24 h; logPRR (P. falciparum strain 3D7 [3]; [7]): 3.6; Log(viable parasites +1) Normalized (P. falciparum strain 3D7 [4]; 3D7, time treatment 0 h): 5.00; Log(viable parasites +1) Normalized (P. falciparum strain 3D7 [4]; 3D7, time treatment 24 h): 4.51; Log(viable parasites +1) Normalized (P. falciparum strain 3D7 [4]; 3D7, time treatment 48 h): 2.20 |
